The values that follow come from patent US20210369681A1, “Identification of PPM1D mutations as a novel biomarker for NAMPTi sensitivity” (YALE UNIVERSITY, priority 2018, published 2021).

Data set [1] relates to SU-DIPG-XXXV. In words: DIPG spheroid viability (CytoTox-Glo), PPM1D mutant line. It counts as cell-based, human. Conditions: 120 hr treatment; spheroids.
Data set [2] deals with parental and PPM1Dtrnc. immortalized human astrocytes. It counts as cell-based. As for the experimental part:
In vitro cellular viability assessments of immortalized human astrocytes, MCF7, and U2OS cell lines were made using a previously described, high-content, microscopy platform developed by our group. In brief, cells were plated in a 96-well plate at a density of 2000 cells/well, and incubated overnight. Drug treatment or vehicle (0.5% DMSO) control was administered, and cells were incubated for 72-96 hours as indicated. Plates were then washed with PBS and fixed with ice-cold 70% ethanol for 2 hours at 4° C. […] Cells were imaged using a Cytation3 imager (BioTek), and images were stitched and analyzed as described above. Viability assessments were made comparing drug treated to vehicle treated conditions. SU-DIPG and HSJD-DIPG-007 spheroid viability was assessed using CytoTox-Glo (Promega), according to the manufacturer's protocols. Spheroids were treated with FK866 for 120 hours before analysis using this method. IC50 calculations were made using GraphPad Prism, by fitting data to an [inhibitor] vs response−variable slope four parameter nonlinear regression (as depicted in the representative figures). siRNA Transfection and Viability Analysis Individual NAPRT targeting siRNAs were ordered from Dharmacon Inc. (Horizon Discovery), with target sequences listed in Table 1. The panel of siRNAs used for synthetic lethal viability screening was hand-selected and ordered from Dharmacon Inc. and were provided in ON-TARGET plus mixtures, each containing up to four unique siRNAs per gene. 2×10^5 astrocytes were reverse-transfected with different siRNAs (200 nM final concentration), using Lipofectamine RNAiMAX (Invitrogen), according to manufacturer's protocols. For individual siRNAs, cells were incubated for 72 hours, pelleted, and lyzed for immunoblotting. For the siRNA screen, cells were incubated for 24 hours and split to different condition plates, where they were incubated for an additional 24 hours. Cells were then treated with the described doses of FK866, and viability was assessed after 72 hours of drug treatment, using the image-based pipeline described above. Viability measurements were made for each siRNA, and normalized to FK866-untreated conditions.
Given the role of PPM1D in DDR pathways, we performed a small molecule synthetic lethal screen with a panel of inhibitors against key DNA repair and metabolic proteins, using methodology described previously by our group.

Data set [3] deals with SU-DIPG-IV, XIII, and XVII (WT DIPG lines). In words: DIPG spheroid viability (CytoTox-Glo), SU-DIPG lines. The data set is classed as cell-based, human.
The test system of data set [4] is serially-transplanted PPM1D mutant astrocyte xenografts. In words: Serially-transplanted PPM1D mutant astrocyte xenografts. The data set is classed as in vivo, NSG mice. Conditions: 20 mg/kg BID. The method, then:
(§1) Astrocyte xenograft studies were performed in NOD scid gamma (NSG, NOD.Cg-Prkdc^scidIl2rg^tm1Wj1/SzJ female mice 3-4 weeks old) mice. For cell line xenografts, 5×10^6 WT or PPM1D^trnc. astrocytes, stably expressing firefly luciferase (lentivirus-plasmids from Cellomics Technology; PLV-10003), were combined with Matrigel (Corning, 47743-722) in a total volume of 0.2 mL. Cell-Matrigel suspension was injected subcutaneously into both the right and left flanks of shaved NSG mice. Mice were randomly sorted into treatment groups, and tumor burden and growth were measured on a weekly basis, via BLI intensity, as described below. FK866 was solubilized in DMSO at a concentration of 80 mg/ml. Mice were then administered the drug intraperitoneally twice a day for 4 days, repeated weekly for 3 weeks at 20 mg/kg in 10% cyclodextrin. Treatment began after one month of growth. Tumors were harvested after completion of treatment, and mass for each tumor was measured. Serially transplanted xenografts were created via continuous transplantation of PPM1D^trnc. cell line xenografts in NSG mice. […] Mice were sorted randomly into treatment groups, and tumor volume was measured using standard caliper-based techniques. Tumor volume was calculated as length×width^2×0.52. […] Mice were sorted randomly into treatment groups, and tumor burden was assessed through caliper measurement and volume calculations. […]

For data set [5], the system named is NAD and NADP levels in WT and PPM1Dtrnc. astrocytes. As to the kind of experiment: NAD / NADP quantification in astrocytes. Conditions: 10 nM FK866, 24 hrs. It counts as cell-based, human. As for the experimental part:
The NAD metabolome was quantitatively analyzed using LC-MS/MS, using two separations on Hypercarb and 13C metabolite standards. Subsequent NAD level analyses were performed using a NAD/NADH Quantification kit (Sigma), as per the manufacturer's specifications. Me/hME-DIP, Bisulfite Conversion, and Global 5-hmC Detection Genomic DNA was purified using the Wizard Genomic DNA purification kit (Promega), and subsequently immunoprecipitated or bisulfite-converted. […] Immunoprecipitated DNA was extracted with phenol/chloroform and analyzed using quantitative PCR (qPCR), as described below. Bisulfite conversion was performed via EpiMark Bisulfite Conversion kit (NEB). Modified DNA was then amplified using EpiMark Hot Start Taq DNA polymerase (NEB), with primers listed in Table 1, and purified with a PCR purification kit (Qiagen). Methylation was then assessed through Sanger-sequencing of the NAPRT promoter. Global 5-hydroxymethylcytosine levels were assessed via the Global 5-hmC quantification kit (Active Motif), according to manufacturer's protocols. Quantitative PCR (qPCR) mRNA transcripts were purified from cells using a RNAeasy kit (Qiagen) and subsequently reverse transcribed using a High Capacity cDNA reverse transcription kit (Applied Biosystems). PPM1D and NAPRT gene expression levels were assessed through qPCR with TaqMan fluorescent probes (all from Applied Biosystems): PPM1D (4331182), NAPRT (4351372), and Actin (4333762F), according to manufacturer's protocol. Expression level fold change was calculated via ΔΔCt comparison, using Actin as a reference gene. The NAPRT promoter region was quantitated via qPCR using Fast Start Universal SYBR Green Master with ROX (Roche), and primers listed in Table 1. All qPCR reactions were run on a StepOnePlus Real Time PCR system (Applied Biosystems).

For data set [6], the system named is MCF7. In words: MCF7 cell viability. Conditions: 96 hr treatment. The data set is classed as cell-based, human. The method, then: (§2) hTert/E6/E7 immortalized human astrocytes were acquired from the lab of Dr. Timothy Chan, and have been previously characterized. Unless noted otherwise, astrocytes were grown in DMEM, high glucose (ThermoFisher Scientific/Gibco) plus 10% FBS (Gibco) as adherent monolayers. U2OS cells were purchased from ATCC, and were grown in DMEM, high glucose plus 10% FBS. MCF7 cells were grown in RPMI1640 (ThermoFisher Scientific/Gibco) with the addition of 10% FBS.

In data set [7] the test system is U2OS. As to the kind of experiment: U2OS cell viability. It counts as cell-based, human. Conditions: 96 hr treatment. As for the experimental part:
as §2

Data set [8] deals with PPM1Dtrnc. astrocyte xenografts. In words: PPM1Dtrnc. astrocyte cell line xenografts. The data set is classed as in vivo, NOD scid gamma (NSG) mice. Conditions: 20 mg/kg BID i.p. The method, then: as §1
For data set [9], the system named is U2OS cell line xenografts. As to the kind of experiment: U2OS cell line xenografts. It counts as in vivo, athymic nude mice.
The test system of data set [10] is NAPRT expression in PPM1Dtrnc. cells. As to the kind of experiment: NAPRT immunoblot after DNA demethylating agents. Conditions: varying doses, 72 hrs. The data set is classed as cell-based, human. The method, then: PPM1D^trnc. astrocytes were treated with 50 µg/mL cycloheximide or 1 μM MG132 (both Sigma) for the indicated amount of time. Cells were then washed, pelleted, and lyzed for subsequent immunoblotting approaches, as described above. Quantification of immunoblot intensity was calculated using ImageJ software, and consisted of multiple (n=3) blots. Irradiation of cells was performed using an X-RAD KV irradiator (Precision X-ray), and treatment consisted of an unfractionated, 10 Gy dose. PPM1D inhibitor treatment with GSK2830371 (Selleckchem), consisted of 50 nM treatment, 24 hours prior to IR. FK866 (Selleckchem), GPP78 (Tocris Bioscience), STF118804 (Tocris Bioscience), STF31 (Tocris Bioscience), 5-azacytidine (Selleckchem), and Decitabine (Selleckchem) were dissolved in DMSO and used for treatment as indicated.
For orientation: Immunoblotting shows a protein as a band on a membrane.

Consider `O=C(/C=C/c1cccnc1)NCCCCC1CCN(C(=O)c2ccccc2)CC1` [FK866], for which the Cytotoxic doses result in data set [1] is listed as “low, single-digit nanomolar range”. The “IC50 ratio (Parental/PPM1Dtrnc.)” value in data set [2] was found to be 9746.59. The “Sensitivity to FK866 in media devoid of nicotinic acid” value in data set [3] (all SU-DIPG spheroid cultures tested, growth media devoid of nicotinic acid (NA)) is given as “strong sensitivity”. The “Response to FK866 treatment” value in [3] (three WT DIPG lines, 120 hr, NA-containing media) is given as “resistant”. In addition, in data set [4] (3 cycles of four days on, three days off, calipers and BLI, vs vehicle), the “Reduced overall tumor size, fold change” value came to 17.1. In addition, the “Tumor growth delay (Kaplan-Meier)” value in [4] (3 cycles, compared to a vehicle control) is “significantly delayed”. Moreover, the “Decline of NAD and NADP compared with WT astrocytes” value in [5] (PPM1Dtrnc. cells) is “significantly greater”. The “Cellular pools of NAD and NADP” value in data set [5] (WT astrocytes) is “dropped markedly”. For the same compound, the “Sensitivity to FK866 treatment” value in [6] and in data set [7] was “strong sensitivity” throughout. Also, in [8] (3 cycles, versus vehicle alone), the “Lower final tumor mass, fold change” value was 3.1. Besides, the “Reduction in tumor burden (BLI), fold change” value in data set [8] (4 days weekly for 3 weeks, after three weeks, vs vehicle) is 4.93. In addition, the “Tumor volume, fold change” value in data set [9] (20 mg/kg BID for 3 four day weekly cycles, vs vehicle) came to 5.86. Besides, the “Body mass difference between the treatment groups” value in [9] (all mice on study, throughout the dosing schedule (FIG. 13B)) was “no significant differences”.

For `Nc1ncn([C@@H]2O[C@H](CO)[C@@H](O)[C@H]2O)c(=O)n1` [azacytidine], the “Reversal of NAPRT gene silencing” value in data set [10] was “failed to reverse”.
